These results are taken from article PMC3607609 (PLoS ONE, 2013).

Assay [1] addresses Cav2.2 expressed in SH-SY5Y whole cell (Homo sapiens, UniProt Q00975). As to the kind of experiment: cell-based. The class given is binding.
Assay [2] addresses Cav2.2 channels endogenously expressed in SH-SY5Y cells (Homo sapiens, UniProt Q00975). In words: cell-based.
Assay [3] has as its target Cav2.2 expressed in SH-SY5Y membranes (Homo sapiens, UniProt Q00975). In words: biochemical. The class given is binding.
Assay [4] deals with Cav2.2 expressed in rat brain (Rattus norvegicus, UniProt Q02294). As to the kind of experiment: biochemical. The class given is binding, rat (male Wistar).
Cav2.2 expressed in rat brain, sequence (Q02294 whole entry, looked up): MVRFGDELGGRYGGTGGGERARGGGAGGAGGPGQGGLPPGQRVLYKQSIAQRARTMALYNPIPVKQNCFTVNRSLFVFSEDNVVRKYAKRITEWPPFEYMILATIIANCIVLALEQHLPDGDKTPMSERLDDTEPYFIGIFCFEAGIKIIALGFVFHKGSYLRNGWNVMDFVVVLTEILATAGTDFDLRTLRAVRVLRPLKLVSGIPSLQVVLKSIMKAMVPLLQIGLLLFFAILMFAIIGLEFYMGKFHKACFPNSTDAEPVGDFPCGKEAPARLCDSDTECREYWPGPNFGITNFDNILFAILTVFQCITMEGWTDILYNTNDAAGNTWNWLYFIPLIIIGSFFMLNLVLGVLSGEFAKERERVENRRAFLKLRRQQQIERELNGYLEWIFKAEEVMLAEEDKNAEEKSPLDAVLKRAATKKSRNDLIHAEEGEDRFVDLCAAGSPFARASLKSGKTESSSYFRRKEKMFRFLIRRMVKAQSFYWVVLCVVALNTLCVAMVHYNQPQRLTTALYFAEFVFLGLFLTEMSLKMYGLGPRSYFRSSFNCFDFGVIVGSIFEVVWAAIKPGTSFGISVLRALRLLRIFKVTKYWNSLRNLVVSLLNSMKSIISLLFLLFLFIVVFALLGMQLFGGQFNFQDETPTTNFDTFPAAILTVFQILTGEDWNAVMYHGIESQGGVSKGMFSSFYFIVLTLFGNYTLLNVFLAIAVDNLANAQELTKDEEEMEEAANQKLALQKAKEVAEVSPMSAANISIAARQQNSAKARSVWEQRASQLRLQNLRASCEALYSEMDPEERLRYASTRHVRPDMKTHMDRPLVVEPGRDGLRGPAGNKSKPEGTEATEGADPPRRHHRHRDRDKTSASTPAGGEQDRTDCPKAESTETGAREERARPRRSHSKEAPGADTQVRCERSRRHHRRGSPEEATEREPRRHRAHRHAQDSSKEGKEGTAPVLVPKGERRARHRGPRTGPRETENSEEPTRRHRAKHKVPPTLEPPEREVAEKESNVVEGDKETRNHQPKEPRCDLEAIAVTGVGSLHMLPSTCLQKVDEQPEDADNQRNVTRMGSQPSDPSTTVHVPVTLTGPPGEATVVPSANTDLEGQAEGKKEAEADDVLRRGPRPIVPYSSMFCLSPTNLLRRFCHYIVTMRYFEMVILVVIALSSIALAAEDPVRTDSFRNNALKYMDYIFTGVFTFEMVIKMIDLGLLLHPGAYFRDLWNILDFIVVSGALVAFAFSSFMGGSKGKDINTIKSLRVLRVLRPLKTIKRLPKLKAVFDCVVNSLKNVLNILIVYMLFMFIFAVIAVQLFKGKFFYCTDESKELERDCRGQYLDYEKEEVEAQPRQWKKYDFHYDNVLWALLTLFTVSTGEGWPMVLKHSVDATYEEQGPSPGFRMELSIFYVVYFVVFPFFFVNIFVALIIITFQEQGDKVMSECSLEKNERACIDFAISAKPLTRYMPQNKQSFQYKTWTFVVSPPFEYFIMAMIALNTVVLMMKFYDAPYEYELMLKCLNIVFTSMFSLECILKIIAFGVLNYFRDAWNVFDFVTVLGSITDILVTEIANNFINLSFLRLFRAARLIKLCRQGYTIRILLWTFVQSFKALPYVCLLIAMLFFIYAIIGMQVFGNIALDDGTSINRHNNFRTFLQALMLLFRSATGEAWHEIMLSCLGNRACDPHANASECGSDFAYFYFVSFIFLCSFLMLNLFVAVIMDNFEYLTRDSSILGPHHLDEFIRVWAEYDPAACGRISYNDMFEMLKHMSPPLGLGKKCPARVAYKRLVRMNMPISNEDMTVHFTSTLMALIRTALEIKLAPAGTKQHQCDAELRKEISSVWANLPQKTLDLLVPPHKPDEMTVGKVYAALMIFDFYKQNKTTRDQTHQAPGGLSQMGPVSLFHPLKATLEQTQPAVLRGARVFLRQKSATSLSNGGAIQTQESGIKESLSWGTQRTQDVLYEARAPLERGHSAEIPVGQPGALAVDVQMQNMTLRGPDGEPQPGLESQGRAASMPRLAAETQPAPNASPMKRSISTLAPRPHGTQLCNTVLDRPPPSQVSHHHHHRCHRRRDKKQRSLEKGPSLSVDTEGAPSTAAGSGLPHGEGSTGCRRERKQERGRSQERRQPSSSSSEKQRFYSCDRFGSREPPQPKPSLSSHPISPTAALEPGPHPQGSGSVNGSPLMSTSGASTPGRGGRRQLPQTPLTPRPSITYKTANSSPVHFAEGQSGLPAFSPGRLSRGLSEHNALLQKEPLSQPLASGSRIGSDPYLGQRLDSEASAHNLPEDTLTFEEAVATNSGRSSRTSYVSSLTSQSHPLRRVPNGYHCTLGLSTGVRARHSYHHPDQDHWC
For assay [5], the system named is α2δ. Further details: method as in PMID 19559597. The following applies: cited from earlier work.
Assay [6] deals with Cav3. The arrangement: method as in PMID 10991994, PMID 9481480. The following applies: different systems; cited from earlier work.
For assay [7], the system named is resistant KCl-evoked Ca^2+ responses in SH-SY5Y cells. In words: cells. The class given is cell-based, human. The following applies: for IC50: Homo sapiens, SH-SY5Y, read-out: Ca2+ inhibition IC50, resistant responses.
Assay [8] has as its system L-type channels. Further details: method as in PMID 10991994, PMID 7565636. The note with it: cited from earlier work.
The target in assay [9] is Cav1 channels endogenously expressed in SH-SY5Y cells (Homo sapiens, UniProt Q01668). In words: Inhibition of KCl-evoked Cav1 Ca2+ responses in presence of CVID, FLIPR-Tetra. Type of assay: cell-based. The following applies: in presence of saturating CVID.
The subject of assay [10] is Cav channels endogenously expressed in SH-SY5Y cells. Type of assay: cell-based, human.
[11] abbreviates: in presence of CVID and nifedipine, agatoxins and SNX 482 up to 10 µM, mibefradil 30 µM.

“And” between values parts separate entries of the source, which are not always exact repeats. Equal entries are not always repeated. “Also recorded” adds a separate entry of the source. Where two headings read alike, the source gives them in different places. Positions of bridges follow the written chain, without caps; N, C: chain ends. Residues, ends and D or L forms follow the SMILES beside them.

Cav2.2 expressed in SH-SY5Y whole cell, sequence (Q00975 whole entry, looked up): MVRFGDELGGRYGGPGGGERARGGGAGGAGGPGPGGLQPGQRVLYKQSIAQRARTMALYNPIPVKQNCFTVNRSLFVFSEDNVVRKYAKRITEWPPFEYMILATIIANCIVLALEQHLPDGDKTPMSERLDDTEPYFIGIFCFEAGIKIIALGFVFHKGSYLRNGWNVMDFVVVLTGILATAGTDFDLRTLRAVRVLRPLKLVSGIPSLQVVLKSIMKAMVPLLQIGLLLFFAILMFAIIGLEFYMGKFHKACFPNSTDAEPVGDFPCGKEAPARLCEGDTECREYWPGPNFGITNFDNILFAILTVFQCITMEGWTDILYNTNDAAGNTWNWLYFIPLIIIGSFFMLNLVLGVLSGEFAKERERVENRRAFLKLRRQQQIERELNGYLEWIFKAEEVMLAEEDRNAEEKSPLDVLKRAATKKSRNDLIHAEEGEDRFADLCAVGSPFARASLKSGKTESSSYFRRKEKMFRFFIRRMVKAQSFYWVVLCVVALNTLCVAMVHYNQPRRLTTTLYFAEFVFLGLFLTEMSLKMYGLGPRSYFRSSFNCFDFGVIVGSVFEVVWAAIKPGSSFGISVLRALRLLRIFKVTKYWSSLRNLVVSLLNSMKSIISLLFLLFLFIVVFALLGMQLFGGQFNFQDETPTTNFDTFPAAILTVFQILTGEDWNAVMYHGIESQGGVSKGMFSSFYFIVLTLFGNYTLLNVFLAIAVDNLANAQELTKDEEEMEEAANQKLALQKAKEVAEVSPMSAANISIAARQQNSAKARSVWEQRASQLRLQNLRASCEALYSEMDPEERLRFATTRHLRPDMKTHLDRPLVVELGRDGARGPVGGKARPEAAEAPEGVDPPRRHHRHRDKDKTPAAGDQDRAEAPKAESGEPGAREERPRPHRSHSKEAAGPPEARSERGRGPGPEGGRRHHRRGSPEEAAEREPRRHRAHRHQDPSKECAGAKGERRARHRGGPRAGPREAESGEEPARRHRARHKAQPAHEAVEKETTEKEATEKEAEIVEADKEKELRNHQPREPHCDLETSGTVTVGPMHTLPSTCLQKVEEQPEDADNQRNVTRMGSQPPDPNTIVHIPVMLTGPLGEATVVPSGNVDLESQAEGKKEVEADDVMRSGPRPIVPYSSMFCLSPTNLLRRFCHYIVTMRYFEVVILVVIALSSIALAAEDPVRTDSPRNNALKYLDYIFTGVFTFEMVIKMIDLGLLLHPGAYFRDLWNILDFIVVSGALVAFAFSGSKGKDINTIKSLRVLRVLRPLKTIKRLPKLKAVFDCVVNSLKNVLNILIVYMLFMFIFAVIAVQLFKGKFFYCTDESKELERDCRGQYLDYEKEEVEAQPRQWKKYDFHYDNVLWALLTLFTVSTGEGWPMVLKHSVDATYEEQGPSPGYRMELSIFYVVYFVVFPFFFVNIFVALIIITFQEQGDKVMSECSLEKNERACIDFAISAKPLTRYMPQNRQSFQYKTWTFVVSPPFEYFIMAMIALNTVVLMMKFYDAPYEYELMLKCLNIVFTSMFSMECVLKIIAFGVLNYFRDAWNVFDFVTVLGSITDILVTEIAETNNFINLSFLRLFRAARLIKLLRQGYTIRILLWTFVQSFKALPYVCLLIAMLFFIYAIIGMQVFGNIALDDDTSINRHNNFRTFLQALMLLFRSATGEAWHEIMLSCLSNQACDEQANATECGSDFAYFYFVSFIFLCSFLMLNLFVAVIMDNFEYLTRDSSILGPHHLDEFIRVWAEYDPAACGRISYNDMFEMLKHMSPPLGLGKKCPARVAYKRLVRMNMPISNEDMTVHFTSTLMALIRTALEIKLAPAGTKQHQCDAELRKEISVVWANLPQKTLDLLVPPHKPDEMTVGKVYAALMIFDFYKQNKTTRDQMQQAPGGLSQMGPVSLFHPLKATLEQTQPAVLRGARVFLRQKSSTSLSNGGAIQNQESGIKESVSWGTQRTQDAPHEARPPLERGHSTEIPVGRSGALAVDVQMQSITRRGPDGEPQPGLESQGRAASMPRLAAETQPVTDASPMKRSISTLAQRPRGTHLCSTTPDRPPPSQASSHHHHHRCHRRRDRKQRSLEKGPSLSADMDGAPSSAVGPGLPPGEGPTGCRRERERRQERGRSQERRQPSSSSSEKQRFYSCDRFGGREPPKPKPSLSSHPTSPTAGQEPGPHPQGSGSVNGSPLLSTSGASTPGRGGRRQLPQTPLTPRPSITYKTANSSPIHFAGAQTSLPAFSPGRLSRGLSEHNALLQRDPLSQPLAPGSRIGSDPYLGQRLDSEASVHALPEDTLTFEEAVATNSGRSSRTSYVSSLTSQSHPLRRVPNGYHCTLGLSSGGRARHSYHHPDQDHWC
Cav2.2 channels endogenously expressed in SH-SY5Y cells, sequence (Q00975 whole entry, looked up): as above
Cav2.2 expressed in SH-SY5Y membranes, sequence (Q00975 whole entry, looked up): as above

As usually defined, the Kd is a measure of binding affinity in units of concentration. As usually defined, the IC50 is the point on the concentration scale where inhibition reaches its midpoint. In [1], `CSCC[C@@H]1NC(=O)[C@H](CC(C)C)NC(=O)[C@H](CCCCN)NC(=O)[C@H](CO)NC(=O)[C@@H]2CSSC[C@@H]3NC(=O)[C@H](CO)NC(=O)CNC(=O)[C@H](CO)NC(=O)[C@H](CSSC[C@H](N)C(=O)N[C@@H](CCCCN)C(=O)N[C@@H](CO)C(=O)N[C@@H](CCCCN)C(=O)NCC(=O)N[C@@H](C)C(=O)N[C@@H](CCCCN)C(=O)N2)NC(=O)[C@H](CSSC[C@@H](C(N)=O)NC(=O)[C@H](CCCNC(=N)N)NC(=O)CNC(=O)[C@H](C(C)C)NC(=O)[C@H]([C@@H](C)O)NC(=O)CNC(=O)[C@H](CO)NC3=O)NC(=O)[C@H](CC(=O)O)NC(=O)[C@H](Cc2ccc(O)cc2)NC1=O` [CVID] (H-CKSKGAKCSKLMYDCCSGSCSGTVGRC-NH2; disulfide 1-16, 8-20, 15-27) returned a Kd of 0.0032 ± 0.0002 µM. Also, the IC50 was 0.16 ± 0.025 µM in assay [2], 3.09 pM in assay [3] and 29.5 pM in [4].

`C[C@@H](O)[C@@H]1NC(=O)[C@H](Cc2ccc(O)cc2)NC(=O)[C@@H]2C[C@@H](O)CN2C(=O)[C@H](CC(N)=O)NC(=O)[C@@H]2CSSC[C@@H]3NC(=O)[C@H](CO)NC(=O)[C@H](CO)NC(=O)CNC(=O)[C@@H]4C[C@@H](O)CN4C(=O)[C@H](CO)NC(=O)[C@H](CCCCN)NC(=O)[C@@H](N)CSSC[C@H](NC(=O)[C@H](CSSC[C@@H](C(=O)N[C@@H](Cc4ccc(O)cc4)C(N)=O)NC(=O)[C@H](CCCN=C(N)N)NC(=O)[C@H](CCCCN)NC1=O)NC(=O)[C@H](CC(N)=O)NC(=O)[C@H](Cc1ccc(O)cc1)NC(=O)[C@H](CO)NC(=O)[C@H]([C@@H](C)O)NC(=O)[C@@H]1C[C@@H](O)CN1C(=O)[C@H](CO)NC3=O)C(=O)N[C@@H](CCCN=C(N)N)C(=O)N[C@@H](CO)C(=O)N2` [GVIA] registered a Kd in assay [1] of 0.00027 ± 8.4e-05 µM. For the same compound, the IC50 in assay [2] was 0.15 ± 0.09 µM; in assay [3] it was 28.2 pM; in assay [4], 37.2 pM.

For the compound `NCC1(CC(=O)O)CCCCC1` [gabapentin], the “Effect of α2δ binding on Cav2.2 trafficking and pain (in words)” value in assay [5] was “reducing Cav2.2 trafficking and the symptoms of pain”.

For the compound `COCC(=O)O[C@]1(CCN(C)CCCc2nc3ccccc3[nH]2)CCc2cc(F)ccc2[C@@H]1C(C)C` [mibefradil], the “Inhibition of Cav3 responses (in words)” value in assay [6] was “weak affinity”. For the same compound, the IC50 in assay [7] stood at 3 ± 0.031 µM. For the same compound, the “Effect on resistant KCl-evoked Ca2+ responses (in words)” value in assay [7] (setting [11]) is given as “fully inhibited these remaining responses; also recorded: completely abolished”. In assay [8], the “Inhibition of L-type channels (in words)” value is listed as “also inhibit L-type channels”.

For the compound `COC(=O)C1=C(C)NC(C)=C(C(=O)OC)C1c1ccccc1[N+](=O)[O-]` [nifedipine], in assay [9], the “Block of L-type KCl responses (in words)” value is listed as “concentration-dependently blocked KCl responses”.

Regarding `O=c1[nH]c2ccccc2n1C1CCN(CCCC(c2ccc(F)cc2)c2ccc(F)cc2)CC1` [pimozide], in assay [7], the IC50 was found to be 1.3 ± 0.097 µM. Also, in [7] (setting [11]), the “Effect on resistant KCl-evoked Ca2+ responses (in words)” value is reported as “fully inhibited the remaining responses; also recorded: completely abolished”. Moreover, in assay [8], the “Inhibition of L-type channels (in words)” value was “also inhibit L-type channels”.

Broadly, the Hill slope is a measure of the steepness of the concentration-response curve. As a reminder, the EC50 is the midpoint of the concentration-response curve. Take KCl: in [10], the Hill slope was 2.5 and 2.9 and 3.5; the “KCl-evoked Ca2+ response (in words)” value was “evoked a large transient response; also recorded: elicits maximal Cav1 and Cav2.2 responses”; the “pEC50 for KCl-mediated stimulation” value came out at 1.69±0.12. In assay [10] (read-out: Ca2+ stimulation EC50), the EC50 stood at 17300 ± 3410 µM.

With SNX 482, in [7], the “Ca2+ inhibition IC50, resistant responses” value was “NDR” and the “Effect on resistant KCl-evoked Ca2+ responses (in words)” value is given as “no significant inhibitory effect; also recorded: not blocked”.

With ω-agatoxin, the “Effect on resistant KCl-evoked Ca2+ responses (in words)” value in [7] was “not blocked”.

On to ω-agatoxin IVA, for which the “Effect on resistant KCl-evoked Ca2+ responses (in words)” value in [7] is “did not significantly affect KCl-evoked Ca^2+ responses”.
